Values quoted from earlier work, collected in US20150064117A1, “NOVEL POLYMORPHS OF REBAUDIOSIDE C AND METHODS FOR MAKING AND USING THE SAME” (Redpoint Bio Corporation, priority 2009, published 2015).
Where two headings read alike, the source gives them in different places.

Legend:
[1] = relative to sucrose

| Compound | times sweeter than sucrose [1] [times] | effect in mixture (presence and degree of synergism) (mixture with fructose, intensity equivalent to 3% (w/v-%) sucrose) | effect in mixture (presence and degree of synergism) (mixture with fructose, intensity equivalent to 5% (w/v-%) sucrose) | effect in mixture (presence and degree of synergism) (mixture with fructose, intensity equivalent to 7% (w/v-%) sucrose) | effect in mixture (presence and degree of synergism) (mixture with glucose, intensity equivalent to 3% (w/v-%) sucrose) | effect in mixture (presence and degree of synergism) (mixture with glucose, intensity equivalent to 5% (w/v-%) sucrose) | effect in mixture (presence and degree of synergism) (mixture with glucose, intensity equivalent to 7% (w/v-%) sucrose) | effect in mixture (presence and degree of synergism) (mixture with sucrose, intensity equivalent to 3% (w/v-%) sucrose) | effect in mixture (presence and degree of synergism) (mixture with sucrose, intensity equivalent to 5% (w/v-%) sucrose) | effect in mixture (presence and degree of synergism) (mixture with sucrose, intensity equivalent to 7% (w/v-%) sucrose) |
| --- | --- | --- | --- | --- | --- | --- | --- | --- | --- | --- |
| C=C1C[C@@]23CC[C@H]4[C@@](C)(CCC[C@@]4(C)C(=O)O[C@@H]4O[C@H](CO)[C@@H](O)[C@H](O)[C@H]4O)[C@@H]2CC[C@]1(O[C@@H]1O[C@H](CO)[C@@H](O)[C@H](O)[C@H]1O[C@@H]1O[C@@H](C)[C@H](O)[C@@H](O)[C@H]1O)C3 [dulcoside A] | 30 |  |  |  |  |  |  |  |  |  |
| C=C1C[C@@]23CC[C@H]4[C@@](C)(CCC[C@@]4(C)C(=O)O[C@@H]4O[C@H](CO)[C@@H](O)[C@H](O)[C@H]4O)[C@@H]2CC[C@]1(O[C@@H]1O[C@H](CO)[C@@H](O)[C@H](O[C@@H]2O[C@H](CO)[C@@H](O)[C@H](O)[C@H]2O)[C@H]1O[C@@H]1O[C@H](CO)[C@@H](O)[C@H](O)[C@H]1O)C3 [rebaudioside A] |  | additive | additive | suppressive | additive | additive | suppressive | synergistic | additive | additive |
| Rebaudioside C | ≥ 40 |  |  |  |  |  |  |  |  |  |
